Measured values as given in publication PMC5927452, “Gadoxetic acid–enhanced magnetic resonance imaging to predict paritaprevir-induced hyperbilirubinemia during treatment of hepatitis C” (PLoS ONE, 2018).

Key:
[1] = regimen of paritaprevir/ritonavir, ombitasvir, and dasabuvir with or without ribavirin; mainly indirect bilirubin, without elevations in liver enzymes; cited from earlier work
Protocol: The regimen of ombitasvir, paritaprevir, and ritonavir (OBV/PTV/r) without or with ribavirin has been available in Japan since 2015 and 2016, respectively. Ritonavir is included for its booster effect on paritaprevir by cytochrome P450 3A inhibitor. Paritaprevir, a nonstructural (NS)3/4A protease inhibitor, is mainly eliminated via hepatobiliary excretion. It is carried into the hepatocyte by hepatic transporters including organic anion–transporting polypeptides (OATP)1B1 and OATP1B3, located at the sinusoidal membranes of hepatocytes. These transporters also carry unconjugated bili ...

[2] = Plasma paritaprevir concentration 7 d after start of OBV/PTV/r treatment (LC-MS/MS); type: in vivo, human; settings: OBV/PTV/r 25/150/100 mg orally once daily; for Log10 Ctrough: fasting steady-state plasma trough, day 7, LC-MS/MS, mean ± SD; for AUC (AUC0-6 h): plasma, day 7, 0-6 h after dosing with breakfast, trapezoidal rule
Protocol: This was a single-center, exploratory, prospective study. The study was approved by both the ethical review board of Juntendo University Faculty of Medicine (Jundai-Irin No-2016135) and the Ethics Committee for Human Genome/Gene Analysis Research at Kanazawa University Graduate School of Medical Sciences (No. 2016–004, serial No. 432) and was carried out in accordance with the 1964 Declaration of Helsinki and its later amendments. The study was also registered with UMIN clinical trials as UMIN000022587. Written informed consent was obtained from all patients before enrollment. The study enrolled adult patients with HCV genotype 1b chronic hepatitis or compensated liver cirrhosis using OBV/PTV/r (VIEKIRAX®; AbbVie, Inc., North Chicago, Illinois, USA) at Juntendo University Nerima Hospital. Analysis of resistance-associated variations of the NS5A Y93H substitutions in the baseline sequence was performed in a commercial laboratory (SRL, Inc., Tokyo, Japan), and the patients with the mutant type of NS5A Y93H were excluded. Patients with renal dysfunction (estimated glomerular filtration rate < 40 ml/min/1.73 m^2) were excluded. A precaution in OBV/PTV/r treatment is coadministration of statin medications. Patients taking simvastatin and atorvastatin were excluded; no other patients were taking any other type of statin. Consequently, this study involved 27 consecutive Japanese patients (8 males and 19 females), with ages ranging from 30 to 83 years, treated between June 2016 and July 2017. Twenty patients with chronic hepatitis and seven patients with liver cirrhosis were included. All patients were treated with OBV/PTV/r, at a dose of 25/150/100 mg, administered orally once daily.
Fasting steady-state plasma trough concentrations (Ctrough) of paritaprevir were determined from blood samples obtained 7 d after the start of treatment. The patients were given the same breakfast of 338 kcal, with 15% of calories from protein, 60% from fat, and 25% from carbohydrates. After the meal, the patients took the drugs orally. Paritaprevir concentrations at 2, 4, and 6 h after dosing were determined. Blood samples were centrifuged within 30 min at 1,500 rpm for 10 min at 4°C, and plasma concentrations of paritaprevir were determined using liquid chromatography–tandem mass spectrometry, as described. The area under the plasma concentration curve from 0 to 6 h (AUC0–6 h) of paritaprevir after dosing was calculated using the trapezoidal rule.

[3] = patients with hyperbilirubinemia (N = 7)
[4] = patients without hyperbilirubinemia (N = 20)

- Log10 Ctrough [2, 3]: 2.768 ± 0.747 ng/ml
- AUC (AUC0-6 h) [2, 3]: 37224 ± 21015 ng·h/mL
- Log10 Ctrough [2, 4]: 2.169 ± 0.484 ng/ml
- AUC (AUC0-6 h) [2, 4]: 31441 ± 21727 ng·h/mL
Compound: Cc1cnc(C(=O)N[C@H]2CCCCC/C=C\[C@@H]3C[C@@]3(C(=O)NS(=O)(=O)C3CC3)NC(=O)[C@@H]3C[C@@H](Oc4nc5ccccc5c5ccccc45)CN3C2=O)cn1 [paritaprevir]
- patients with elevation in total bilirubin (≥ 2.25 mg/dl) [1]: 23%
